According to patent US20240083892A1 (BISICHEM CO., LTD., priority 2021, published 2024):

Legend:
RIPK1 [1] = biological target: T1, RIPK1 (Homo sapiens, UniProt Q13546); test: Cell-based necroptosis assay for RIPK1 activity (cell viability by CCK-8); details: HT-29 cells; Z-VAD-FMK 20 μM, human TNFα 10 ng/ml, SM-164 100 nM; 24 h; read-out: Cell-base RIPK1 activity: Necroptosis
T1 construct: endogenous in cells; host or cells: HT-29 (KCLB 30038)
T1 sequence (Q13546 1-671): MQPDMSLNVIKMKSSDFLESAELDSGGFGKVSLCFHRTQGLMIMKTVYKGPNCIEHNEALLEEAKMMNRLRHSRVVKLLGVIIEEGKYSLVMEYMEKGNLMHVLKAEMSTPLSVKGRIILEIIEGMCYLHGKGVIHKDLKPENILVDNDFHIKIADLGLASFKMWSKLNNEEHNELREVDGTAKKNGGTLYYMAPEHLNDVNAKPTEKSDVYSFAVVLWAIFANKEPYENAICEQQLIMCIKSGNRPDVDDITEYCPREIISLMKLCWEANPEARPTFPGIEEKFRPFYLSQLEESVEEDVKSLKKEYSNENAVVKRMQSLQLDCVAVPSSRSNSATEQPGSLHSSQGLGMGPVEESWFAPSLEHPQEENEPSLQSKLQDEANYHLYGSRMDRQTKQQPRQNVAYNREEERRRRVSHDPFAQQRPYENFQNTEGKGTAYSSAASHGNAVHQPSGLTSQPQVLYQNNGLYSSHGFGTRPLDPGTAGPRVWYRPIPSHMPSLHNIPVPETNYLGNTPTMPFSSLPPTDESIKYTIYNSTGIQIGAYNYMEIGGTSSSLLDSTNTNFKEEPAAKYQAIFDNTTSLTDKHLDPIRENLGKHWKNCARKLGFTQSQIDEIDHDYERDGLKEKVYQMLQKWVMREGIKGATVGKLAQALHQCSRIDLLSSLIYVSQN
Method in brief: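 HT-29 cells pretreated 30 min with 20 μM Z-VAD-FMK, then necroptosis induced with human TNFα 10 ng/ml plus SM-164 100 nM alongside RIPK1 inhibitor (0.0001–10 uM) for 24 h. Viability read by CCK-8.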

RIPK1 [2] = biological target: T1, RIPK1; test: Immunoblotting of TNFα induced phospho-RIPK1 (ser 166) levels; format: cell-based; details: HMC3 cells; Z-VAD-FMK, human TNFα 20 ng/ml, SM-164 100 nM; 7 h, serum free media; read-out: Cell-base RIPK1 activity: phspho-RIPK1 (Ser166)
Method in brief: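 HMC3 human microglial cells were pretreated 30 min with Z-VAD-FMK […]. They were then given TNFα 20 ng/ml, SM-164 100 nM and inhibitor (0.1, 1, 10 nM) for 7 h in serum-free medium. BCA-normalised lysates were immunoblotted for phospho-RIPK1 Ser166.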

Row | Structure (SMILES) | IC50 (RIPK1 [1]) | IC50 (RIPK1 [2])
1 | Cc1nnc(COc2ccc3c(c2)N(C)C(=O)[C@@H](NC(=O)n2cc(Cc4cccc(F)c4)cn2)CO3)o1 [Example 64, (S)-4-(3-fluorobenzyl)-N-(5-methyl-7-((5-methyl-1,3,4-oxadiazol-2-yl)methoxy)-4-oxo-2,3,4,5-tetrahydrobenzo[b][1,4]oxazepin-3-yl)-1H-pyrazole-1-carboxamide] | 10 to 50 nM | 10 to 50 nM
2 | COC(=O)c1csc(COc2ccc3c(c2)N(C)C(=O)[C@@H](NC(=O)n2cc(Cc4cccc(F)c4)cn2)CO3)n1 [Example 65, Methyl (S)-2-(((3-(4-(3-fluorobenzyl)-1H-pyrazole-1-carboxamido)-5-methyl-4-oxo-2,3,4,5-tetrahydrobenzo[b][1,4]oxazepin-7-yl)oxy)methyl)thiazole-4-carboxylate] | < 10 nM | < 10 nM
3 | CN1C(=O)[C@@H](NC(=O)n2cc(Cc3cccc(F)c3)cn2)COc2ccc(OCc3nc(C(C)(C)O)cs3)cc21 [Example 66, (S)-4-(3-fluorobenzyl)-N-(7-((4-(2-hydroxypropan-2-yl)thiazol-2-yl)methoxy)-5-methyl-4-oxo-2,3,4,5-tetrahydrobenzo[b][1,4]oxazepin-3-yl)-1H-pyrazole-1-carboxamide] | < 10 nM | < 10 nM
4 | Cc1noc(C)c1COc1ccc2c(c1)N(C)C(=O)[C@@H](NC(=O)n1cc(Cc3cccc(F)c3)cn1)CO2 [Example 67, (S)—N-(7-((3,5-dimethylisoxazol-4-yl)methoxy)-5-methyl-4-oxo-2,3,4,5-tetrahydrobenzo[b][1,4]oxazepin-3-yl)-4-(3-fluorobenzyl)-1H-pyrazole-1-carboxamide] | < 10 nM | < 10 nM
5 | CN1C(=O)[C@@H](NC(=O)n2cc(Cc3cccc(F)c3)cn2)COc2ccc(OCc3cn(CC(C)(C)O)nn3)cc21 [Example 68, (S)-4-(3-fluorobenzyl)-N-(7-((1-(2-hydroxy-2-methylpropyl)-1H-1,2,3-triazol-4-yl)methoxy)-5-methyl-4-oxo-2,3,4,5-tetrahydrobenzo[b][1,4]oxazepin-3-yl)-1H-pyrazole-1-carboxamide] | < 10 nM | < 10 nM
6 | CN1C(=O)[C@@H](NC(=O)n2cc(Cc3cccc(F)c3)cn2)COc2ccc(OCC(O)c3ccccn3)cc21 (stereo partly drawn) [Example 69, 4-(3-fluorobenzyl)-N-((3S)-7-(2-hydroxy-2-(pyridin-2-yl)ethoxy)-5-methyl-4-oxo-2,3,4,5-tetrahydrobenzo[b][1,4]oxazepin-3-yl)-1H-pyrazole-1-carboxamide] | < 10 nM | < 10 nM
7 | CN1C(=O)[C@@H](NC(=O)n2cc(Cc3cccc(F)c3)cn2)COc2ccc(OCC(O)c3cccnc3)cc21 (stereo partly drawn) [Example 70, 4-(3-fluorobenzyl)-N-((3S)-7-(2-hydroxy-2-(pyridin-3-yl)ethoxy)-5-methyl-4-oxo-2,3,4,5-tetrahydrobenzo[b][1,4]oxazepin-3-yl)-1H-pyrazole-1-carboxamide] | < 10 nM | < 10 nM
8 | CN1C(=O)[C@@H](NC(=O)n2cc(Cc3cccc(F)c3)cn2)COc2ccc(OCC(O)c3ccncc3)cc21 (stereo partly drawn) [Example 71, 4-(3-fluorobenzyl)-N-((3S)-7-(2-hydroxy-2-(pyridin-4-yl)ethoxy)-5-methyl-4-oxo-2,3,4,5-tetrahydrobenzo[b][1,4]oxazepin-3-yl)-1H-pyrazole-1-carboxamide] | < 10 nM | < 10 nM
